Values after ≈ are worked out from the molar mass of the structure shown. Read-outs that look alike come from different tables or passages of the source.

For data set [1], the system named is Salmonella sp - antibiotic-susceptible clinical isolate. The data set is described as follows: MIC microbroth dilution (CLSI). Type of data set: cell-based. The text has this: (§1) Cation-adjusted Mueller-Hinton broth (Oxoid Ltd., Basingstoke, UK and Trek Diagnostic Systems Ltd., East Grinstead, UK) (supplemented with 5% laked horse blood for Streptococcus spp., Corynebacterium jeikeium and Listeria monocytogenes) was used for aerobic bacteria, with an initial inoculum of approximately 10^5 colony-forming units (CFU)/mL.
(In broth dilution the organism is exposed to a series of concentrations in liquid medium.)

In data set [2] the test system is Salmonella sp - multi-drug resistant clinical isolate. The data set is described as follows: MIC microbroth dilution (CLSI). Type of data set: cell-based.
Description: as §1

In data set [3] the test system is Shigella sp - antibiotic-susceptible clinical isolate. Put plainly: MIC microbroth dilution (CLSI). It counts as cell-based.
Description: as §1

The subject of data set [4] is Moraxella catarrhalis - reduced fluoroquinolone susceptibility clinical isolate. Type of data set: cell-based.
Description: as §1

Data set [5] concerns Moraxella catarrhalis - β -lactamase positive clinical isolate. Type of data set: cell-based.
Description: as §1

The subject of data set [6] is Streptococcus pyogenes - Macrolide (M-type) resistance clinical isolate. It counts as cell-based. Conditions: S. pyogenes Macrolide (M-type) resistance.
Description: as §1

In data set [7] the test system is Clostridium difficile - antibiotic-susceptible clinical isolate. The data set is described as follows: MIC microbroth dilution (CLSI). Type of data set: cell-based. Details: unit not given beside the values. Conditions: C. difficile. As to the method:
Supplemented Brucella broth (SBB) was used for the anaerobic strains with an inoculum of approximately 10^6 CFU/mL. SBB is a broth consisting of 1% peptone, 0.5% ‘Lab-lemco’, 1% glucose and 0.5% sodium chloride supplemented with 5 […] vitamin K (both obtained from Sigma Aldrich Ltd.)

Data set [8] has as its system Candida parapsilosis ATCC 22019. Put plainly: MIC microbroth dilution (CLSI), extra control strain. It counts as cell-based. Conditions: C. parapsilosis ATCC 22019; RPMI 1640. On the procedure: (§2) Yeast and filamentous fungal MIC were performed in MOPS buffered RPMI 1640 medium (MOPS buffer obtained from Sigma Aldrich Ltd., RPMI 1640 obtained from Invitrogen Ltd, Paisley, Scotland). The yeast inocula were in the range 7.5×10^2-4×10^3 CFU/mL and the filamentous fungi approximately 8×10^3-1×10^5 CFU/mL

For data set [9], the system named is Bacteroides fragilis - ATCC 25285. The data set is described as above. It counts as cell-based. Conditions: B. fragilis ATCC 25285; SBB. On the set-up: unit not given here.
Data set [10] relates to Eggerthella lenta - ATCC 43055. The data set is described as above. Conditions: SBB. On the set-up: unit not given here. It counts as cell-based.
The subject of data set [11] is Staphylococcus aureus, strain ATCC 25923.
Data set [12] deals with Methicillin resistant Staphylococcus aureus (MRSA) strain ATCC 33591.
For data set [13], the system named is Methicillin resistant Staphylococcus epidermidis (MRSE) strain ATCC 27626.
Data set [14] concerns Haemophilus influenzae - ATCC 47247. The data set is described as follows: MIC microbroth dilution (CLSI), extra control strain. On the set-up: unit not given beside the values. Conditions: H. influenzae ATCC 47247; HTM.
In data set [15] the test system is Staphylococcus aureus FDA486. The data set is described as follows: Murine skin infection model, topical treatment. Type of data set: in vivo. The conditions noted are these: mice; cream or gel containing 2% (w/w); three treatments at three hourly intervals; biopsy three hours after last. On the procedure:
(§3) The skin of mice was infected with Staphylococcus aureus or Streptococcus pyogenes and subsequently given a total of three treatments at three hourly intervals. Three hours after the last treatment, skin biopsies were collected and the number of colony forming units (CFUs) present in the skin sample was determined. Results are shown in FIGS. 1 and 2, expressed as the number of colony forming units per mouse.
(§4) The skin of mice was infected with Staphylococcus aureus or Streptococcus pyogenes and subsequently given a total of three treatments at three hourly intervals. Three hours after the last treatment, skin biopsies were collected and the number of colony forming units (CFUs) present in the skin sample was determined. Results are shown in FIGS. 3, 4 and 5 expressed as the number of colony forming units per mouse.

Data set [16] deals with Streptococcus pyogenes CS301. Put plainly: Murine skin infection model, topical treatment. It counts as in vivo. The conditions noted are these: mice; for number of CFUs in skin biopsy vs placebo gel and bactroban: 1% or 2% gel, three treatments at three hourly intervals; for number of CFUs in skin biopsy, 2% gel compared with 1% gel: 2% gel vs 1% gel. As to the method:
as §3, §4

Data set [17] in a line: Solubility in organic solvents. It counts as physicochemical. Conditions: THF and chloroform. On the procedure: Alternatively, both the compound of Formula (I) and the polymer may be dissolved in a single solvent, either prior to mixing, at the time or mixing or after mixing. Suitable solvents for this approach include THF and chloroform. It may be necessary to combine the compound of Formula (I) with the solvent, e.g. THF, for a long time, e.g. at least 4 hours, preferably at least 12 hours, maybe 1 or more days, possibly up to 7 or 14 days.
The Resomer RG502 bioresorbable polymer material and AMC-109 were separately dissolved in THF in such a manner that amount of AMC-109 compared to the bioresorbable polymer in the final painting solution was 5%. The dissolution of AMC-109 in THF takes several hours.
The Resomer L2065 bioresorbable polymer material and AMC-109 were separately dissolved in dichloromethane and chloroform, respectively. The ratio between AMC-109 and L2065 was the same as above.

The test system of data set [18] is Candida (Issatchenkia) krusei ATCC6258 - reference strain. It counts as cell-based. On the procedure: as §2
Data set [19] has as its system Candida tropicalis ATCC750 - reference strain. Type of data set: cell-based. On the procedure: as §2
For data set [20], the system named is Cryptococcus neoformans - G.R. Micro collection. It counts as cell-based. As to the method:
as §2

The subject of data set [21] is Trichophyton mentagrophytes - G.R. Micro collection. It counts as cell-based. As to the method:
as §2

Data set [22] concerns Corynebacterium jeikeium - antibiotic-susceptible clinical isolate. It counts as cell-based.
Description: as §1

Data set [23] relates to Corynebacterium jeikeium - multi-drug resistant clinical isolate. Type of data set: cell-based.
Description: as §1

Data set [24] concerns EMRSA15 Staphylococcus aureus (MRSA) - SSCmec type 4. It counts as cell-based. Conditions: EMRSA15 - SSCmec type 4.
Description: as §1

Data set [25] deals with EMRSA3 Staphylococcus aureus (MRSA) - SSCmec type 1. Type of data set: cell-based. Conditions: EMRSA3 - SSCmec type 1.
Description: as §1

The subject of data set [26] is Enterococcus gallinarum vancomycin-resistant (VanC) clinical isolate. It counts as cell-based.
Description: as §1

In data set [27] the test system is HT2001254 Staphylococcus aureus (MRSA) - PVL positive. It counts as cell-based.
Description: as §1

Data set [28] concerns Pseudomonas aeruginosa - multi-drug resistant clinical isolate. It counts as cell-based.
Description: as §1

The subject of data set [29] is Staphylococcus aureus - methicillin-resistant clinical isolate. It counts as cell-based.
Description: as §1

Data set [30] has as its system Staphylococcus aureus ATCC 25923 - antibiotic-susceptible control strain. It counts as cell-based.
Description: as §1

Data set [31] has as its system Staphylococcus aureus ATCC 29213 - antibiotic-susceptible control strain. Type of data set: cell-based.
Description: as §1

In data set [32] the test system is Staphylococcus aureus ATCC 43300 - methicillin-resistant control strain. Type of data set: cell-based.
Description: as §1

Data set [33] deals with Staphylococcus epidermidis antibiotic susceptible clinical isolate. It counts as cell-based.
Description: as §1

In data set [34] the test system is Staphylococcus epidermidis methicillin-resistant clinical isolate. It counts as cell-based.
Description: as §1

For data set [35], the system named is Staphylococcus haemolyticus - antibiotic susceptible clinical isolate. Type of data set: cell-based.
Description: as §1

Data set [36] deals with Staphylococcus saprophyticus - antibiotic susceptible clinical isolate. Type of data set: cell-based.
Description: as §1

For data set [37], the system named is Streptococcus agalactiae - antibiotic-susceptible clinical isolate. Type of data set: cell-based.
Description: as §1

For data set [38], the system named is Streptococcus bovis - macrolide-resistant clinical isolate. Type of data set: cell-based.
Description: as §1

The subject of the next data set is C. albicans. The conditions noted are these: Table 5.
Another data set relates to S. pyogenes. Conditions: Table 5.
The next data set has as its system E. coli. Conditions: Table 5.
The test system of another data set is P. aeruginosa. The conditions noted are these: Table 5.
[39] abbreviates: M. catarrhalis reduced fluoroquinolone susceptibility.
[40] abbreviates: M. catarrhalis β-lactamase positive.

As to `N=C(N)NCCCC(N)C(=O)NC(Cc1ccc(-c2ccc3ccccc3c2)cc1)C(=O)NC(CCCNC(=N)N)C(=O)NCCc1ccccc1` (centres unmarked) [Compound 1], the MIC in [1] was determined as 16; in [2], 16; in data set [3] it was 32; in [4] (setting [39]) it was 8; in [5] (setting [40]), 4; in data set [6] it was 32. The same compound yielded an MIC in data set [7] of 32. Further, the “MIC (control strain)” value in [8] was 4; in data set [9], 64; in data set [10] it was 16; in [14] it was 32. Also, the “MIC S. aureus” value in data set [11] (Staphylococcus aureus ATCC 25923) was found to be 4 µM (≈ 2.83 µg/mL). For the same compound, the “MIC MRSA” value in [12] (MRSA ATCC 33591) was under 3 µM. In data set [13] (MRSE ATCC 27626), the “MIC MRSE” value was under 3 µM.

Regarding `CC(C)(C)c1cc(C(C)(C)C)c2[nH]c(C(C)(C)C)c(CC(NC(=O)C(N)CCCNC(=N)N)C(=O)NC(CCCNC(=N)N)C(=O)NCCc3ccccc3)c2c1` (stereo not drawn) [Compound 2, Arg-Tbt-Arg-NHCH2CH2Ph], the MIC came out at 8 in [1]; 8 in data set [2]; 8 in data set [3]; 8 in [4] (setting [39]); 4 in data set [5] (setting [40]); 16 in data set [6]. Moreover, in data set [7], the MIC was 16. Moreover, the “MIC (control strain)” value was 8 in data set [8], 64 in data set [9], 32 in data set [10] and 4 in data set [14]. Also, in data set [15], the “number of CFUs in skin biopsy vs placebo” value is “the number of CFUs was reduced”. The “number of CFUs in skin biopsy vs placebo gel and bactroban” value in [16] is “more effective at reducing the number of CFUs than the placebo gel or the bactroban”. Further, in data set [16], the “number of CFUs in skin biopsy, 2% gel compared with 1% gel” value is reported as “more effective than the gel containing only 1% of compound 2”. For the same compound, the solubility result in data set [17] is “soluble in THF and chloroform”.

Consider `CC(C)NC(=O)[C@H](CCCNC(=N)N)NC(=O)[C@H](Cc1c(C(C)(C)C)[nH]c2c(C(C)(C)C)cc(C(C)(C)C)cc12)NC(=O)[C@@H](N)CCCNC(=N)N` [Compound 7], for which the MIC in data set [18] stood at 8 µg/mL (≈ 11 µM); in [19], 4 µg/mL (≈ 5.51 µM); in [20], 8 µg/mL (≈ 11 µM); in data set [21], 8 µg/mL (≈ 11 µM); in [22], 8 µg/mL (≈ 11 µM); in [23], 8 µg/mL (≈ 11 µM). Also, the MIC in data set [24] was 8 µg/mL (≈ 11 µM); in [25] it was 8 µg/mL (≈ 11 µM); in data set [26] it was 8 µg/mL (≈ 11 µM); in data set [27], 8 µg/mL (≈ 11 µM); in [4], 8 mg/L (≈ 11 µM); in data set [5], 4 mg/L (≈ 5.51 µM). In addition, the MIC amounted to 8 µg/mL (≈ 11 µM) in data set [28]; 8 µg/mL (≈ 11 µM) in data set [29]; 8 µg/mL (≈ 11 µM) in [30]; 8 µg/mL (≈ 11 µM) in data set [31]; 8 µg/mL (≈ 11 µM) in data set [32]; 4 µg/mL (≈ 5.51 µM) in data set [33]. Also, the MIC in data set [34] turned out to be 4 µg/mL (≈ 5.51 µM); in data set [35], 4 µg/mL (≈ 5.51 µM); in [36], 2 µg/mL (≈ 2.75 µM); in data set [37] it was 8 µg/mL (≈ 11 µM); in [38], 8 µg/mL (≈ 11 µM). Moreover, the “number of CFUs in skin biopsy vs placebo” value in data set [15] is “the number of CFUs was reduced”. Besides, the “number of CFUs in skin biopsy vs placebo gel and bactroban” value in data set [16] is “more effective at reducing the number of CFUs from a Streptococcus pyogenes CS 301 infection than the placebo gel or the bactroban”. For the same compound, in data set [16], the “number of CFUs in skin biopsy, 2% gel compared with 1% gel” value is “more effective than the gel containing only 1% of compound 7”. The “S. aureus (MIC)” value in data set [11] (ATCC 25923) was under 2 µg/mL. Also, in [12] (ATCC 33591), the “MRSA (MIC)” value is under 2 µg/mL. The “MRSE (MIC)” value in [13] (ATCC 27626) was under 2 µg/mL. Also, the “C. albicans (MIC)” value with C. albicans was determined as 25 µg/mL. Moreover, the “S. pyogenes (MIC)” value with S. pyogenes is under 2 µg/mL. The “E. coli (MIC)” value in the data set on E. coli was found to be 7 µg/mL. Besides, in the data set with P. aeruginosa, the “P. aeruginosa (MIC)” value amounted to 7 µg/mL.

The values are drawn from patent US20230338609A1, “MEDICAL DEVICES AND MATERIALS COMPRISING BIODEGRADABLE POLYESTERS” (AMICOAT AS, priority 2020, published 2023).
